Measurements: patent publication US10376520B2, “Methods for the treatment of cardiovascular disorders” (Galapagos NV, priority 2015, dated 2019)

Tested on: RA patients
Experiment: [HDL] determination, Study 1 (RA patients, add-on to MTX)
Format: in vivo, human
Description: Double-blind, placebo-controlled add on study in subjects with moderately to severely active RA who have an inadequate response to methotrexate (MTX) (oral or parenteral).
595 subjects randomized to one of 6 dose regimens of Compound 1 (dosed as a [Compound 1:HCl:3H2O]) (3 dose levels administered either once or twice daily) or placebo on top of each subject's stable dose of MTX.
Compound 1 (dosed as a [Compound 1:HCl:3H2O]) is dosed for twelve weeks once daily (q.d.) (50 mg, 100 mg or 200 mg) or twice daily (b.i.d.) (25 mg, 50 mg or 100 mg); or placebo.
At Week 12, the subjects on placebo who have not achieved 20% improvement in swollen joint count (SJC66) and tender joint count (TJC68) are re-randomized automatically to receive Compound 1 (dosed as a [Compound 1:HCl:3H2O]) either at 100 mg q.d. or 50 mg b.i.d. doses in a blinded fashion; subjects on 50 mg q.d. who have not achieved 20% improvement in SJC66 and TJC68 will be assigned to 100 mg q.d. and subjects on 25 mg b.i.d. that have not achieved a 20% improvement in SJC66 and TJC68 will be assigned to 50 mg b.i.d. Subjects who switch treatment at week 12 are handled as if they discontinued at week 12 for the purpose of statistical analysis, whereas subjects in the other groups will maintain their randomized treatment until Week 24.
This assay relies on a homogeneous enzymatic colorimetric test. In the presence of magnesium ions, dextran sulfate selectively forms water-soluble complexes with LDL, VLDL and chylomicrons which are resistant to PEG-modified enzymes.
The cholesterol concentration of [HDL]-cholesterol is determined enzymatically by cholesterol esterase and cholesterol oxidase coupled with PEG to the amino groups (approx. 40%).
In the presence of peroxidase, the hydrogen peroxide generated reacts with 4-amino-antipyrine and Sodium N-(2-hydroxy-3-sulfopropyl)-3,5-dimethoxyaniline (HSDA) to form a purple-blue dye. The color intensity of this dye is directly proportional to the cholesterol concentration and is measured photometrically.
Human serum and plasma samples [HDL] determination was done on a Roche/Hitachi Cobas c 701/702 system which automatically calculate the analyte concentration of each sample. Samples containing precipitates are centrifuged before performing the assay.

[1] = 2 x 25 mg b.i.d. (N = 86), week 1
[2] = 2 x 25 mg b.i.d. (N = 86), week 2
[3] = 2 x 25 mg b.i.d. (N = 86), week 4
[4] = 2 x 25 mg b.i.d. (N = 86), week 8
[5] = 2 x 25 mg b.i.d. (N = 86), week 12
[6] = 2 x 50 mg b.i.d. (N = 85), week 1
[7] = 2 x 50 mg b.i.d. (N = 85), week 2
[8] = 2 x 50 mg b.i.d. (N = 85), week 4
[9] = 2 x 50 mg b.i.d. (N = 85), week 8

O=C(Nc1nc2cccc(-c3ccc(CN4CCS(=O)(=O)CC4)cc3)n2n1)C1CC1 [Compound 1, cyclopropanecarboxylic acid {5-[4-(1,1-dioxo-thiomorpholin-4-ylmethyl)-phenyl]-[1,2,4]triazolo[1,5-a]pyridin-2yl}-amide]
[HDL] Mean CFB - 12 weeks results (50 mg q.d. (N = 82), week 1): 0.02 mmol/L
[HDL] Mean percentage CFB - 12 weeks results (50 mg q.d. (N = 82), week 1): 2%
[HDL] Median CFB - 12 weeks results (50 mg q.d. (N = 82), week 1): 0.01 mmol/L
[HDL] Mean CFB - 12 weeks results (50 mg q.d. (N = 82), week 2): 0.08 mmol/L
[HDL] Mean percentage CFB - 12 weeks results (50 mg q.d. (N = 82), week 2): 5%
[HDL] Median CFB - 12 weeks results (50 mg q.d. (N = 82), week 2): 0.08 mmol/L
[HDL] Mean CFB - 12 weeks results (50 mg q.d. (N = 82), week 4): 0.06 mmol/L
[HDL] Mean percentage CFB - 12 weeks results (50 mg q.d. (N = 82), week 4): 5%
[HDL] Median CFB - 12 weeks results (50 mg q.d. (N = 82), week 4): 0.05 mmol/L
[HDL] Mean CFB - 12 weeks results (50 mg q.d. (N = 82), week 8): 0.06 mmol/L
[HDL] Mean percentage CFB - 12 weeks results (50 mg q.d. (N = 82), week 8): 6%
[HDL] Median CFB - 12 weeks results (50 mg q.d. (N = 82), week 8): 0.10 mmol/L
[HDL] Mean CFB - 12 weeks results (50 mg q.d. (N = 82), week 12): 0.06 mmol/L
[HDL] Mean percentage CFB - 12 weeks results (50 mg q.d. (N = 82), week 12): 7%
[HDL] Median CFB - 12 weeks results (50 mg q.d. (N = 82), week 12): 0.05 mmol/L
[HDL] Mean CFB - 12 weeks results (100 mg q.d. (N = 85), week 1): 0.05 mmol/L
[HDL] Mean percentage CFB - 12 weeks results (100 mg q.d. (N = 85), week 1): 5%
[HDL] Median CFB - 12 weeks results (100 mg q.d. (N = 85), week 1): 0.06 mmol/L
[HDL] Mean CFB - 12 weeks results (100 mg q.d. (N = 85), week 2): 0.07 mmol/L
[HDL] Mean percentage CFB - 12 weeks results (100 mg q.d. (N = 85), week 2): 7%
[HDL] Median CFB - 12 weeks results (100 mg q.d. (N = 85), week 2): 0.07 mmol/L
[HDL] Mean CFB - 12 weeks results (100 mg q.d. (N = 85), week 4): 0.11 mmol/L
[HDL] Mean percentage CFB - 12 weeks results (100 mg q.d. (N = 85), week 4): 9%
[HDL] Median CFB - 12 weeks results (100 mg q.d. (N = 85), week 4): 0.13 mmol/L
[HDL] Mean CFB - 12 weeks results (100 mg q.d. (N = 85), week 8): 0.09 mmol/L
[HDL] Mean percentage CFB - 12 weeks results (100 mg q.d. (N = 85), week 8): 8%
[HDL] Median CFB - 12 weeks results (100 mg q.d. (N = 85), week 8): 0.11 mmol/L
[HDL] Mean CFB - 12 weeks results (100 mg q.d. (N = 85), week 12): 0.10 mmol/L
[HDL] Mean percentage CFB - 12 weeks results (100 mg q.d. (N = 85), week 12): 8%
[HDL] Median CFB - 12 weeks results (100 mg q.d. (N = 85), week 12): 0.10 mmol/L
[HDL] Mean CFB - 12 weeks results (200 mg q.d. (N = 86), week 1): 0.11 mmol/L
[HDL] Mean percentage CFB - 12 weeks results (200 mg q.d. (N = 86), week 1): 9%
[HDL] Median CFB - 12 weeks results (200 mg q.d. (N = 86), week 1): 0.13 mmol/L
[HDL] Mean CFB - 12 weeks results (200 mg q.d. (N = 86), week 2): 0.20 mmol/L
[HDL] Mean percentage CFB - 12 weeks results (200 mg q.d. (N = 86), week 2): 17%
[HDL] Median CFB - 12 weeks results (200 mg q.d. (N = 86), week 2): 0.20 mmol/L
[HDL] Mean CFB - 12 weeks results (200 mg q.d. (N = 86), week 4): 0.24 mmol/L
[HDL] Mean percentage CFB - 12 weeks results (200 mg q.d. (N = 86), week 4): 20%
[HDL] Median CFB - 12 weeks results (200 mg q.d. (N = 86), week 4): 0.25 mmol/L
[HDL] Mean CFB - 12 weeks results (200 mg q.d. (N = 86), week 8): 0.29 mmol/L
[HDL] Mean percentage CFB - 12 weeks results (200 mg q.d. (N = 86), week 8): 22%
[HDL] Median CFB - 12 weeks results (200 mg q.d. (N = 86), week 8): 0.30 mmol/L
[HDL] Mean CFB - 12 weeks results (200 mg q.d. (N = 86), week 12): 0.27 mmol/L
[HDL] Mean percentage CFB - 12 weeks results (200 mg q.d. (N = 86), week 12): 21%
[HDL] Median CFB - 12 weeks results (200 mg q.d. (N = 86), week 12): 0.26 mmol/L
[HDL] Mean CFB - 12 weeks results [1]: 0.00 mmol/L
[HDL] Mean percentage CFB - 12 weeks results [1]: 0%
[HDL] Median CFB - 12 weeks results [1]: 0.00 mmol/L
[HDL] Mean CFB - 12 weeks results [2]: 0.04 mmol/L
[HDL] Mean percentage CFB - 12 weeks results [2]: 4%
[HDL] Median CFB - 12 weeks results [2]: 0.05 mmol/L
[HDL] Mean CFB - 12 weeks results [3]: 0.05 mmol/L
[HDL] Mean percentage CFB - 12 weeks results [3]: 4%
[HDL] Median CFB - 12 weeks results [3]: 0.05 mmol/L
[HDL] Mean CFB - 12 weeks results [4]: 0.06 mmol/L
[HDL] Mean percentage CFB - 12 weeks results [4]: 5%
[HDL] Median CFB - 12 weeks results [4]: 0.10 mmol/L
[HDL] Mean CFB - 12 weeks results [5]: 0.06 mmol/L
[HDL] Mean percentage CFB - 12 weeks results [5]: 6%
[HDL] Median CFB - 12 weeks results [5]: 0.05 mmol/L
[HDL] Mean CFB - 12 weeks results [6]: 0.03 mmol/L
[HDL] Mean percentage CFB - 12 weeks results [6]: 4%
[HDL] Median CFB - 12 weeks results [6]: 0.05 mmol/L
[HDL] Mean CFB - 12 weeks results [7]: 0.12 mmol/L
[HDL] Mean percentage CFB - 12 weeks results [7]: 10%
[HDL] Median CFB - 12 weeks results [7]: 0.10 mmol/L
[HDL] Mean CFB - 12 weeks results [8]: 0.13 mmol/L
[HDL] Mean percentage CFB - 12 weeks results [8]: 12%
[HDL] Median CFB - 12 weeks results [8]: 0.13 mmol/L
[HDL] Mean CFB - 12 weeks results [9]: 0.13 mmol/L
[HDL] Mean percentage CFB - 12 weeks results [9]: 11%
[HDL] Median CFB - 12 weeks results [9]: 0.14 mmol/L
